Test results as given in publication PMC7248956, “Discovery of Novel Imidazopyridine GSK-3β Inhibitors Supported by Computational Approaches” (Molecules, 2020).

Molecular target: T1, GSK-3β (Homo sapiens, UniProt P49841)
Test: in vitro GSK-3β inhibition assay
Format: biochemical
Settings: IMID 1 and IMID 2 derivatives 7–18; average of duplicate wells
Description: Driven by the promising results, compounds 7–18 were synthesized as reported in Chemistry Section 2.1. Their biological activity was determined using an in vitro GSK-3β assay described elsewhere. […] In vitro MDCK-MDR1 permeability of IMID 1 and IMID 2 derivatives was also experimentally assessed (Table 1). […] In this respect, a decrease of TPSA was observed moving from INDZ 6 to the corresponding analogues 12 (IMID 1) and 18 (IMID 2), and from 3 to 15. The SAR analysis highlighted the detrimental impact of the positively charged piperidine ring of 2-8-14 triplet and derivative 13 on CNS permeability. […] When the piperidine was replaced with an oxanyl ring, while keeping the isopropoxypyridinyl group on the other side (2 vs. 4 and 8 vs. 10), a low CNS penetration was still observed, indicating a coexisting unfavorable contribution (high TPSA) of the R2 moiety to permeability. The comparison of the 4–10 pyridinyl derivatives with the corresponding 6–12 di-F-phenyl molecules confirmed an ameliorated BBB permeability when lipophilicity raises.

T1 sequence (P49841 whole entry): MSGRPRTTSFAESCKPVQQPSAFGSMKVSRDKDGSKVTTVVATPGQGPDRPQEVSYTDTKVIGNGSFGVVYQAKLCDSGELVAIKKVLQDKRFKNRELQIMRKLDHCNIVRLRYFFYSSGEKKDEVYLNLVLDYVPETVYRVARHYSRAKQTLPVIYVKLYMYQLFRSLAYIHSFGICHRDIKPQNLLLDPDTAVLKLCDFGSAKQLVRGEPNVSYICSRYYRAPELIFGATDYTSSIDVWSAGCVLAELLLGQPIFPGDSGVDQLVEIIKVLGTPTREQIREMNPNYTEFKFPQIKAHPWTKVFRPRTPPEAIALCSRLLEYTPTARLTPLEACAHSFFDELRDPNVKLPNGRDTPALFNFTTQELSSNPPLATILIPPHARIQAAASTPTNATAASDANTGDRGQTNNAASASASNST

Going from `O=C(NCC1CCOCC1)c1ncn2ccc(-c3cccnc3)cc12` [Compound 9, 7-(Pyridin-3-yl)-N-((tetrahydro-2H-pyran-4-yl)methyl)imidazo[1,5-a]pyridine-1-carboxamide] to `O=C(NCC1CCOCC1)c1ncn2ccc(-c3cnccc3CO)cc12` [Compound 11, 7-(4-(Hydroxymethyl)pyridin-3-yl)-N-((tetrahydro-2H-pyran-4-yl)methyl)imidazo [1,5-a]pyridine-1-carboxamide], the IC50 rises from 180 nM to 1400 nM (7.8-fold).

First: CC(C)Oc1cncc(-c2ccn3cnc(C(=O)NCC4CCOCC4)c3c2)c1 [Compound 10, 7-(5-Isopropoxypyridin-3-yl)-N-((tetrahydro-2H-pyran-4-yl)methyl)imidazo[1,5-a]pyridine-1-carboxamide]
Second: COCCN1CCC(CNC(=O)c2ncn3ccc(-c4cncc(OC(C)C)c4)cc23)CC1 [Compound 8, 7-(5-Isopropoxypyridin-3-yl)-N-((1-(2-methoxyethyl)piperidin-4-yl)methyl)imidazo[1,5-a]pyridine-1-carboxamide]
The IC50 of the first is 1.7-fold higher: 200 nM for the first, 120 nM for the second.

First: O=C(NCC1CCOCC1)c1ncc2ccc(-c3cccc(F)c3F)cn12 [Compound 18, 6-(2,3-Difluorophenyl)-N-((tetrahydro-2H-pyran-4-yl)methyl)imidazo[1,5-a]pyridine-3-carboxamide]
Second: O=C(NCC1CCOCC1)c1ncc2ccc(-c3cccnc3)cn12 [Compound 15, 6-(Pyridin-3-yl)-N-((tetrahydro-2H-pyran-4-yl)methyl)imidazo[1,5-a]pyridine-3-carboxamide]
The IC50 of the first is 2.6-fold higher: 240 nM for the first, 91 nM for the second. The second is the more potent here.

`O=C(NCC1CCOCC1)c1ncn2ccc(-c3cccc(F)c3F)cc12` [Compound 12, 7-(2,3-Difluorophenyl)-N-((tetrahydro-2H-pyran-4-yl)methyl)imidazo[1,5-a]pyridine-1-carboxamide] and `COCCN1CCC(CNC(=O)c2ncn3ccc(-c4cccnc4)cc23)CC1` [Compound 7, N-((1-(2-Methoxyethyl)piperidin-4-yl)methyl)-7-(pyridin-3-yl)imidazo[1,5-a]pyridine-1-carboxamide] are within 1.5-fold of each other in IC50: 280 nM for the first, 410 nM for the second.

First: COCCN1CCC(CNC(=O)c2ncc3ccc(-c4cncc(OC(C)C)c4)cn23)CC1 [Compound 14, 6-(5-Isopropoxypyridin-3-yl)-N-((1-(2-methoxyethyl)piperidin-4-yl)methyl)imidazo[1,5-a]pyridine-3-carboxamide]
Second: COCCN1CCC(CNC(=O)c2ncc3ccc(-c4cccnc4)cn23)CC1 [Compound 13, N-((1-(2-Methoxyethyl)piperidin-4-yl)methyl)-6-(pyridin-3-yl)imidazo[1,5-a]pyridine-3-carboxamide]
The IC50 of the first is 1.6-fold lower: 230 nM for the first, 370 nM for the second.

First: O=C(NCC1CCOCC1)c1ncc2ccc(-c3cnccc3CO)cn12 [Compound 17, 6-(4-(Hydroxymethyl)pyridin-3-yl)-N-((tetrahydro-2H-pyran-4-yl)methyl)imidazo[1,5-a]pyridine-3-carboxamide]
Second: CC(C)Oc1cncc(-c2ccc3cnc(C(=O)NCC4CCOCC4)n3c2)c1 [Compound 16, 6-(5-Isopropoxypyridin-3-yl)-N-((tetrahydro-2H-pyran-4-yl)methyl)imidazo[1,5-a]pyridine-3-carboxamide]
The IC50 of the first is 13-fold higher: 910 nM for the first, 72 nM for the second. The second is the more potent here.

Molecular target: T1, GSK-3β
Test: not given
Parameters: method as in PMID 26486317, PMID 32435391
Settings: INDZ derivatives 1–6, published ahead; cited from earlier work

For `COCCN1CCC(CNC(=O)c2n[nH]c3ccc(-c4cncc(OC(C)C)c4)cc23)CC1` [Compound 2], the IC50 is given as 9 nM.

Same assay, conditions: INDZ derivatives; cited from earlier work

In the case of `COCCN1CCC(CNC(=O)c2n[nH]c3ccc(-c4cncc(OC(C)C)c4)cc23)CC1` [Compound 2], the IC50 is listed as 4 nM.
